The record followed here is publication PMC11345841, “Exploring 2-Sulfonylpyrimidine Warheads as Acrylamide Surrogates for Targeted Covalent Inhibition: A BTK Story” (Journal of Medicinal Chemistry, 2024).

Common to all, as to experiment: KINOMEscan ScanTK
Type in all cases: binding

Assay [1] concerns the target T1, EPHB6 (Homo sapiens, UniProt O15197).
T1 construct: purchased Eurofins DiscoverX KINOMEscan (scanTK)
T1 sequence (O15197 32-1021): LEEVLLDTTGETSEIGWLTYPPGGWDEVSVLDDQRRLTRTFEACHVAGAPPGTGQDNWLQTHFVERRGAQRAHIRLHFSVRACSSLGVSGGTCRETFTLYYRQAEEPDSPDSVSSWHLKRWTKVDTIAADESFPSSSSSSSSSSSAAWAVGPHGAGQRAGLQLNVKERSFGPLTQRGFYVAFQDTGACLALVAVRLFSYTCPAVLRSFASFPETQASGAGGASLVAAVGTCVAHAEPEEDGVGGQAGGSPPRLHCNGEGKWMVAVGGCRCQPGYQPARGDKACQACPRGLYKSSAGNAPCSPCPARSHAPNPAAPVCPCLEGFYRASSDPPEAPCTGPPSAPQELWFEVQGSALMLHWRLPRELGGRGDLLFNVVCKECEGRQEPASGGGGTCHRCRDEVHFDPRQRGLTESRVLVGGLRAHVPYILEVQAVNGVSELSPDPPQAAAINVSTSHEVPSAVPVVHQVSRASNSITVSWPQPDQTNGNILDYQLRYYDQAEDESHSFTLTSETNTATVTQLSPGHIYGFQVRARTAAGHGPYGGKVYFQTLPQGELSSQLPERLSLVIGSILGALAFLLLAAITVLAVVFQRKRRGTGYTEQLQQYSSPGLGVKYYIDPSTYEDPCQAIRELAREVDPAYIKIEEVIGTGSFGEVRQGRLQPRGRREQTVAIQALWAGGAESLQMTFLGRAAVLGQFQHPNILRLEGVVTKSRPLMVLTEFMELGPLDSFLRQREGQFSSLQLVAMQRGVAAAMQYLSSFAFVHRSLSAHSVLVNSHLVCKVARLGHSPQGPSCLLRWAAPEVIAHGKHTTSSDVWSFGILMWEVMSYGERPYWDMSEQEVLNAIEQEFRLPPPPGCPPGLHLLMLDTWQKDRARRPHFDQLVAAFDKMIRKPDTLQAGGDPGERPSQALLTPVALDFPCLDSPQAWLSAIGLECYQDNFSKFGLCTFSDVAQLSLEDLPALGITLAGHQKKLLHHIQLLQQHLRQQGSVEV

Assay [2] addresses T2, TXK (Homo sapiens, UniProt P42681).
T2 construct: purchased Eurofins DiscoverX KINOMEscan (scanTK)
T2 sequence (P42681 1-527): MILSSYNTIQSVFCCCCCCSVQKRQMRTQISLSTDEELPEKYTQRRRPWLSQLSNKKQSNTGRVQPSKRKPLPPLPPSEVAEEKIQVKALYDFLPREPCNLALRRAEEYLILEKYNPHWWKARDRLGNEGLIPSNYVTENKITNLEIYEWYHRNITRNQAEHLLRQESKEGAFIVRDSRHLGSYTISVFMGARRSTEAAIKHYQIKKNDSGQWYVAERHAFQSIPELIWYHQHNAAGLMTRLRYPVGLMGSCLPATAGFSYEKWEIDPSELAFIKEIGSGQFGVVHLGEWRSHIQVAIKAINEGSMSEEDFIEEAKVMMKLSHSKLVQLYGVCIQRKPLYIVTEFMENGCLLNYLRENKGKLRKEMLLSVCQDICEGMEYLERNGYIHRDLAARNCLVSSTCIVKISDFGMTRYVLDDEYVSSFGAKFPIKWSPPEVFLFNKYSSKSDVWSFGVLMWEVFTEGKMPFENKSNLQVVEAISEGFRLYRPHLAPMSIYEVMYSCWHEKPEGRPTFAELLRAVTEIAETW

The target in assay [3] is T3, TRKA (Homo sapiens, UniProt P04629).
T3 construct: purchased Eurofins DiscoverX KINOMEscan (scanTK)
T3 sequence (P04629 33-796): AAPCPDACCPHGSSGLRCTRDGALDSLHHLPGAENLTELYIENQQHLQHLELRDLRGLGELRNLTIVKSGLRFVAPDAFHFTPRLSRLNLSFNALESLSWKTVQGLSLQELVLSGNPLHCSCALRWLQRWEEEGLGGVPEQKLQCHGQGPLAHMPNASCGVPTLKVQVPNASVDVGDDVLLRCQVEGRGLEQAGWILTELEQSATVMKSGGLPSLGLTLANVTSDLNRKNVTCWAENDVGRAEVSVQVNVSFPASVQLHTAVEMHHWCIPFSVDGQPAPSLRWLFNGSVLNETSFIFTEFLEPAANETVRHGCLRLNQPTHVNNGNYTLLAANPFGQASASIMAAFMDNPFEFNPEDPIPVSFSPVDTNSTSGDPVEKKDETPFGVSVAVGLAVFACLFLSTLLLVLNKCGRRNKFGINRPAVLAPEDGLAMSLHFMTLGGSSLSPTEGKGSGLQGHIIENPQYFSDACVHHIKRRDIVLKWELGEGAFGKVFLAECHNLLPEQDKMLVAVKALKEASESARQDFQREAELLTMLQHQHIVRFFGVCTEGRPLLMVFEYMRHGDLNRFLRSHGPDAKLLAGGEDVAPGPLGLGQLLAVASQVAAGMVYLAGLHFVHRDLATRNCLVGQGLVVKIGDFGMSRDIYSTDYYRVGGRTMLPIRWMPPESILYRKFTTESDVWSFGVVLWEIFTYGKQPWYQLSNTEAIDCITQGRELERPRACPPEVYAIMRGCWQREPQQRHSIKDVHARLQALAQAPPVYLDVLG

In assay [4] the target is T4, FLT3(K663Q) (Homo sapiens, UniProt P36888, K663Q).
T4 construct: purchased Eurofins DiscoverX KINOMEscan (scanTK)
T4 sequence (P36888 27-993 K663Q): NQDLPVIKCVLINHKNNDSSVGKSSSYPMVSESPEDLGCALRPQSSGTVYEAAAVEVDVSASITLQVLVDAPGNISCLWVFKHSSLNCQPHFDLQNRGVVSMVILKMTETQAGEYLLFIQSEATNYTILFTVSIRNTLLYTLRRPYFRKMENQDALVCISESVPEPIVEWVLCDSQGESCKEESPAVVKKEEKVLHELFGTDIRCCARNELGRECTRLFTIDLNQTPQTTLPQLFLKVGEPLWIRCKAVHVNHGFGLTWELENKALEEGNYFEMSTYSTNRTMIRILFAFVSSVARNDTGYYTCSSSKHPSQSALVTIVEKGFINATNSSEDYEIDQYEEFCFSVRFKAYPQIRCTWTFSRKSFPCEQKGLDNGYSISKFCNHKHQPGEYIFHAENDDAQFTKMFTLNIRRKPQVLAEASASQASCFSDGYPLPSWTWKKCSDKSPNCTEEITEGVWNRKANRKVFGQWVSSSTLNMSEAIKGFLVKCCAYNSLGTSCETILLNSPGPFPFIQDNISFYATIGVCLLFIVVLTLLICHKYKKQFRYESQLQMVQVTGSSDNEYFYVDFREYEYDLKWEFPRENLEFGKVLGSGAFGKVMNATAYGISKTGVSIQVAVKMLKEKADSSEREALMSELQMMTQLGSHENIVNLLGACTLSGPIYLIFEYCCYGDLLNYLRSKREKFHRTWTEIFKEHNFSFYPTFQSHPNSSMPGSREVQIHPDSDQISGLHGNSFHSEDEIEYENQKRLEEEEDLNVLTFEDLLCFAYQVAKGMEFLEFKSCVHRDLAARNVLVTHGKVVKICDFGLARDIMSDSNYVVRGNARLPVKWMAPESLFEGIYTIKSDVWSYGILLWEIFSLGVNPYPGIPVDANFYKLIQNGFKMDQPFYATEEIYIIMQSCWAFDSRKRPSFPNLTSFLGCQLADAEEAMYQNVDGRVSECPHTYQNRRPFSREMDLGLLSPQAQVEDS

The target in assay [5] is T5, KIT-autoinhibited (Homo sapiens, UniProt P10721).
T5 construct: purchased Eurofins DiscoverX KINOMEscan (scanTK)
T5 sequence (P10721 26-976): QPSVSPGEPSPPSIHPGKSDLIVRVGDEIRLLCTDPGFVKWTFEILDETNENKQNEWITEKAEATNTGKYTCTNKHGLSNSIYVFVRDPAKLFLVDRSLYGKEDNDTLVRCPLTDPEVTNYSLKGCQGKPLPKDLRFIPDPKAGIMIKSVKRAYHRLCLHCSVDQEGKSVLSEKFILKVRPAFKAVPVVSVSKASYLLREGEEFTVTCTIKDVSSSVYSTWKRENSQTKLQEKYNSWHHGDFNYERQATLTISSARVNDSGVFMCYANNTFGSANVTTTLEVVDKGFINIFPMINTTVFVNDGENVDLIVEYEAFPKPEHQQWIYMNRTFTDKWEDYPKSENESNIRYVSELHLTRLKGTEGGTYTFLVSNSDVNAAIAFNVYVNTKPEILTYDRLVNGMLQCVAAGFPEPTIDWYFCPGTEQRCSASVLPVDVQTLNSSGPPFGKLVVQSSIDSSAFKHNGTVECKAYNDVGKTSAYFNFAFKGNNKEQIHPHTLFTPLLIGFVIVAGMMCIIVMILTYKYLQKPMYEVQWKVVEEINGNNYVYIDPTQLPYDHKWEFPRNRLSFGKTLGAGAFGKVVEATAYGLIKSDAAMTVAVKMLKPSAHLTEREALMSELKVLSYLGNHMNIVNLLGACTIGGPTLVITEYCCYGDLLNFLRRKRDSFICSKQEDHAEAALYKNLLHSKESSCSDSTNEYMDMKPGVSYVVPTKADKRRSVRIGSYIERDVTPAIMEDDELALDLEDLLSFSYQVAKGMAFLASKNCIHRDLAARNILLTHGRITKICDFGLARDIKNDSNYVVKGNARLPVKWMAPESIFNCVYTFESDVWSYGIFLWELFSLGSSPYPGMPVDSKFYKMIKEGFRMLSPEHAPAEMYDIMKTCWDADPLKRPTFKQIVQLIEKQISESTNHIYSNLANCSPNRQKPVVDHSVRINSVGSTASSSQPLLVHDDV

Assay [6] has as its target T6, SRC (Homo sapiens, UniProt P12931).
T6 construct: purchased Eurofins DiscoverX KINOMEscan (scanTK)

[7] abbreviates: @1000nM, TRKA, read-out: %Control.
[8] abbreviates: TRKA, read-out: %Control @1000nM.

Like-named read-outs stand apart in the source and are kept apart here.

T6 sequence (P12931 whole entry): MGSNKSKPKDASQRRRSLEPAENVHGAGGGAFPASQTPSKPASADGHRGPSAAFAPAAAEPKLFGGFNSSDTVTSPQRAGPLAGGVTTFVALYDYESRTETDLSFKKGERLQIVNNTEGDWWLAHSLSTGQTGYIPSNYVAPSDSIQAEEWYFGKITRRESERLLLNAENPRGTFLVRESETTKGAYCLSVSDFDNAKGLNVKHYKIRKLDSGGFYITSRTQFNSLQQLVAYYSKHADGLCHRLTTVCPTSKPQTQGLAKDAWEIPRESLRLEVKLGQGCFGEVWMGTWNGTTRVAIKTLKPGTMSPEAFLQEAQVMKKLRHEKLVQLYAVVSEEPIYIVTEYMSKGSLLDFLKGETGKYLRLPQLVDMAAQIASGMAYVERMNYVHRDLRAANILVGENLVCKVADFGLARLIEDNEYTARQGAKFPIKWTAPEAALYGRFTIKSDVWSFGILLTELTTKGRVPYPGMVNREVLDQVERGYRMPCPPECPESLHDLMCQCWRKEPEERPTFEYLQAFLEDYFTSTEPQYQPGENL

Take `C=CC(=O)N1CCC[C@@H](n2nc(-c3ccc(Oc4ccccc4)cc3)c3c(N)ncnc32)C1` [Compound 1g, Ibrutinib, reference compound]: the remaining binding at 1 µM in assay [1] (@1000nM, read-out: %Control) was 18%; in assay [1] (read-out: %Control @1000nM) it was 18%; in assay [2] (@1000nM, read-out: %Control) it was 8.7%; in assay [2] (read-out: %Control @1000nM) it was 8.7%; in assay [3] (read-out: %Control) it was 85%; in assay [3] (read-out: %Control @1000nM), 85%. Further, the remaining binding at 1 µM is 44% in assay [4] (@1000nM, read-out: %Control); 44% in assay [4] (read-out: %Control @1000nM); 88% in assay [5] (@1000nM, read-out: %Control); 88% in assay [5] (read-out: %Control @1000nM).

For `Cc1cnc(S(C)(=O)=O)nc1N1CCCC(n2nc(-c3ccc(Oc4ccccc4)cc3)c3c(N)ncnc32)C1` (stereo not shown) [Compound 8a, 1-(1-(5-Methyl-2-(methylsulfonyl)pyrimidin-4-yl)piperidin-3-yl)-3-(4-phenoxyphenyl)-1H-pyrazolo[3,4-d]pyrimidin-4-amine], in assay [1] (@1000nM), the difference in %Control versus compound Ib at 1 µM amounted to 6%. In addition, the remaining binding at 1 µM is 24% in assay [1] (@1000nM, read-out: %Control); 24% in assay [1] (read-out: %Control @1000nM); 17% in assay [6] (@1000nM, read-out: %Control); 17% in assay [6] (read-out: %Control @1000nM); 14% in assay [2] (@1000nM, read-out: %Control); 14% in assay [2] (read-out: %Control @1000nM). Further, the remaining binding at 1 µM was 97% in assay [3] (setting [7]); 97% in assay [3] (setting [8]); 58% in assay [4] (@1000nM, read-out: %Control); 58% in assay [4] (read-out: %Control @1000nM); 100% in assay [5] (@1000nM, read-out: %Control); 100% in assay [5] (read-out: %Control @1000nM). Besides, the difference in % of control versus compound Ib at 1 µM in assay [3] (@1000nM, TRKA) is 12%. In assay [4] (@1000nM), this compound yielded a difference in %Control from compound Ib at 1 µM of 14%.

Consider `COC(=O)c1cnc(S(C)(=O)=O)nc1N1CCCC(n2nc(-c3ccc(Oc4ccccc4)cc3)c3c(N)ncnc32)C1` (stereo not shown) [Compound 8b, Methyl 4-(3-(4-Amino-3-(4-phenoxyphenyl)-1H-pyrazolo[3,4-d]pyrimidin-1-yl)piperidin-1-yl)-2-(methylsulfonyl)pyrimidine-5-carboxylate], for which, in assay [1] (@1000nM), the difference in %Control versus compound Ib at 1 µM was -9.1%. Moreover, the remaining binding at 1 µM in assay [1] (@1000nM, read-out: %Control) amounted to 8.9%; in assay [1] (read-out: %Control @1000nM), 8.9%; in assay [6] (@1000nM, read-out: %Control), 60%; in assay [6] (read-out: %Control @1000nM), 60%; in assay [2] (@1000nM, read-out: %Control), 11%; in assay [2] (read-out: %Control @1000nM), 11%. For the same compound, the remaining binding at 1 µM in assay [3] (setting [7]) was 89%; in assay [3] (setting [8]), 89%; in assay [4] (@1000nM, read-out: %Control) it was 73%; in assay [4] (read-out: %Control @1000nM), 73%; in assay [5] (@1000nM, read-out: %Control) it was 90%; in assay [5] (read-out: %Control @1000nM), 90%. Further, the difference in % of control versus compound Ib at 1 µM in assay [3] (@1000nM, TRKA) worked out at 4%. The difference in %Control from compound Ib at 1 µM in assay [4] (@1000nM) was determined as 29%.

Take `CCOC(=O)c1cnc(S(C)(=O)=O)nc1N1CCC[C@@H](n2nc(-c3ccc(Oc4ccccc4)cc3)c3c(N)ncnc32)C1` [Compound 8c, Ethyl (R)-4-(3-(4-Amino-3-(4-phenoxyphenyl)-1H-pyrazolo[3,4-d]pyrimidin-1-yl)piperidin-1-yl)-2-(methylsulfonyl)pyrimidine-5-carboxylate]: in assay [1] (@1000nM), the difference in %Control versus compound Ib at 1 µM is 54%. Besides, the remaining binding at 1 µM in assay [1] (@1000nM, read-out: %Control) was determined as 72%; in assay [1] (read-out: %Control @1000nM), 72%; in assay [6] (@1000nM, read-out: %Control) it was 66%; in assay [6] (read-out: %Control @1000nM), 66%; in assay [2] (@1000nM, read-out: %Control) it was 12%; in assay [2] (read-out: %Control @1000nM), 12%. For the same compound, the remaining binding at 1 µM was found to be 93% in assay [3] (setting [7]); 93% in assay [3] (setting [8]); 100% in assay [4] (@1000nM, read-out: %Control); 100% in assay [4] (read-out: %Control @1000nM); 94% in assay [5] (@1000nM, read-out: %Control); 94% in assay [5] (read-out: %Control @1000nM). In addition, in assay [3] (@1000nM, TRKA), the difference in % of control versus compound Ib at 1 µM was 8%. The compound further came in with a difference in %Control from compound Ib at 1 µM in assay [4] (@1000nM) of 56%.

On to `CNC(=O)c1cnc(S(C)(=O)=O)nc1N1CCCC(n2nc(-c3ccc(Oc4ccccc4)cc3)c3c(N)ncnc32)C1` (stereo not shown) [Compound 8d, 4-(3-(4-Amino-3-(4-phenoxyphenyl)-1H-pyrazolo[3,4-d]pyrimidin-1-yl)piperidin-1-yl)-N-methyl-2-(methylsulfonyl)pyrimidine-5-carboxamide], for which the difference in %Control versus compound Ib at 1 µM in assay [1] (@1000nM) amounted to 16%. Also, the remaining binding at 1 µM in assay [1] (@1000nM, read-out: %Control) was 34%; in assay [1] (read-out: %Control @1000nM) it was 34%; in assay [6] (@1000nM, read-out: %Control), 43%; in assay [6] (read-out: %Control @1000nM), 43%; in assay [2] (@1000nM, read-out: %Control), 10%; in assay [2] (read-out: %Control @1000nM), 10%. The remaining binding at 1 µM in assay [3] (setting [7]) was 83%; in assay [3] (setting [8]), 83%; in assay [4] (@1000nM, read-out: %Control), 80%; in assay [4] (read-out: %Control @1000nM) it was 80%; in assay [5] (@1000nM, read-out: %Control), 100%; in assay [5] (read-out: %Control @1000nM), 100%. In addition, in assay [3] (@1000nM, TRKA), the difference in % of control versus compound Ib at 1 µM was -2%. For the same compound, the difference in %Control from compound Ib at 1 µM in assay [4] (@1000nM) was 36%.
